{"source": "patent US12350269B2", "about": "(Alexion Pharmaceuticals, Inc., priority 2015, dated 2025)", "key": {"SYK and JAK signaling": {"test_system": "SYK and JAK signaling", "test": "Phase 1 study: whole blood PD, SYK and JAK signaling", "assay_type": "in vivo, human", "description": "(§1) Human Whole Blood Assays: Inhibition of SYK- and JAK-dependent and independent signaling was determined by stimulating human whole blood with various agonists against BCR and cytokine receptors. 100 μL aliquots of heparinized healthy human whole blood was stimulated as previously described (Coffey et al, J. of Pharm. and Experimental Therapeutics, 351:538-548, 2014), using an 8-point concentration curve to determine IC50's. Signaling and activation responses were determined by Fluorescence-activated cell sorting (“FACS”). For the clinical trial, whole blood samples were collected prior to and after dosing. Percent inhibition was calculated by normalizing to the pre-dose stimulation response.\n(§2) Pharmacokinetics (“PK”), pharmacodynamics (“PD”), and safety were monitored. Response was assessed by standard criteria. The level of inhibition of SYK and JAK was determined using a variety of whole blood assays measuring signaling via receptors for the B-cell antigen, IL2, IL4, IL6, and GM-CSF. Serum markers of tumor burden, including CCL3, CCL4, and other markers of inflammation (β2M and CRP), were also being measured."}, "IL2, IL4, IL6 signaling": {"test_system": "IL2, IL4, IL6 signaling", "test": "Phase 1 study: whole blood PD, IL2, IL4, IL6 (JAK/STAT) signaling", "assay_type": "in vivo, human", "description": "as §1, §2"}, "PKC": {"test_system": "PKC", "test": "Healthy normal human whole blood assay: T-cell, PMA stimulation, pERK Y204 readout", "assay_type": "cell-based"}, "BCR signaling": {"test_system": "BCR signaling", "test": "Phase 1 study: whole blood PD, BCR signaling", "assay_type": "in vivo, human", "description": "as §1, §2"}, "TSSK": {"target": "TSSK", "test": "Purified kinase assay (Millipore)", "assay_type": "biochemical", "conditions": "300 nM ATP"}, "15 DLBCL cell lines": {"test_system": "15 DLBCL cell lines", "test": "DLBCL cell line panel: caspase 3 cleavage and Edu incorporation by FACS", "assay_type": "cell-based", "description": "DLBCL Cell Line Viability Assays: Cell lines, purchased from ATCC, were screened using the CellTiter Glo (Promega) assay in 384 well plates using a ten-point concentration response curve to generate IC50's. Each IC50 value is an average of at least four replicate experiments. Subsequent analysis using a FACS based caspase 3 cleavage detection kit (BD Biosciences) and Edu incorporation were performed.\nIn a panel of 15 cell lines representing both ABC and GCB subtypes, 9 underwent apoptosis and an additional 2 underwent cell cycle arrest.\nFIG. 1 and FIG. 2 depicts bar graphs that show the percent inhibition of Edu incorporation and percent induction of caspase 3 cleavage by FACS analysis, respectively."}, "JAK1/3": {"test_system": "JAK1/3", "test": "Healthy normal human whole blood assay: T-cell, IL2 stimulation, pSTAT5 Y694 readout", "assay_type": "cell-based"}, "SYK": {"test_system": "SYK", "test": "Healthy normal human whole blood assay: B-cell, BCR stimulation, pERK Y204 readout", "assay_type": "cell-based"}, "Zap70": {"test_system": "Zap70", "test": "Healthy normal human whole blood assay: T-cell, TCR stimulation, pERK Y204 readout", "assay_type": "cell-based"}, "TYK2": {"target": "T1, TYK2 (Homo sapiens, UniProt P29597)", "T1 construct": "purchased Millipore", "T1 sequence (P29597 whole entry)": "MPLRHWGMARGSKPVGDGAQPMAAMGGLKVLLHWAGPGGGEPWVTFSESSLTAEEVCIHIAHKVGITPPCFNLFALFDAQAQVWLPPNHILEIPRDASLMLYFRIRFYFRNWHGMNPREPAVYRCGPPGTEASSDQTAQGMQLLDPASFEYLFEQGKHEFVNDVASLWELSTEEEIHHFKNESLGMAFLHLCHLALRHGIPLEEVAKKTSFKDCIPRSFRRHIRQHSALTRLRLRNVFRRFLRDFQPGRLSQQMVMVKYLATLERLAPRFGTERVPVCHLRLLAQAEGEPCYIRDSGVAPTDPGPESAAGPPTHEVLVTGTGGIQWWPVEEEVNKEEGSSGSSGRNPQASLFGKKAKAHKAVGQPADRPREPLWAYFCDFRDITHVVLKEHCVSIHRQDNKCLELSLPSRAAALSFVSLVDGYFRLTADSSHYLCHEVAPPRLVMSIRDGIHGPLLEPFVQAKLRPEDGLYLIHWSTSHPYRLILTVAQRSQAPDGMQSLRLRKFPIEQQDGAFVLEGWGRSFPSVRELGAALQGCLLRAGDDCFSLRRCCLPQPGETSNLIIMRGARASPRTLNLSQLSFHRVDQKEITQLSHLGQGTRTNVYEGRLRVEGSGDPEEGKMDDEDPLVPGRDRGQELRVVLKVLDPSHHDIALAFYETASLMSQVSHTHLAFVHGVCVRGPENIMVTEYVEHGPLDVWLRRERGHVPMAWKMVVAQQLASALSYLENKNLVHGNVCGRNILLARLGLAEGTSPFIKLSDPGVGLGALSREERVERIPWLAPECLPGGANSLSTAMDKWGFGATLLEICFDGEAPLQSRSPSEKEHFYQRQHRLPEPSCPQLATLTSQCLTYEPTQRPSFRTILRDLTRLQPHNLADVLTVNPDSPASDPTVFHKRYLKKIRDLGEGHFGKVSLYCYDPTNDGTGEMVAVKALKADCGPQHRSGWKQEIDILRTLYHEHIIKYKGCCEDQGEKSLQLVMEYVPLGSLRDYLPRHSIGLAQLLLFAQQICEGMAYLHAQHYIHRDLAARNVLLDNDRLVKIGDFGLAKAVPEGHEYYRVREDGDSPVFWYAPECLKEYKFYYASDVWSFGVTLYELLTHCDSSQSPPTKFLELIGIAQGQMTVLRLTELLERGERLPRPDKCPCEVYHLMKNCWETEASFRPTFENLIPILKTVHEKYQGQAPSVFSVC", "test": "Purified kinase assay (Millipore)", "assay_type": "biochemical", "conditions": "300 nM ATP", "description": "(§3) Purified Kinase Assays: Performed at Millipore at a fixed concentration of 300 nM ATP. A 10-point concentration curve was used to determine IC (Inhibitory Concentration)."}, "MARK1": {"target": "T2, MARK1 (Homo sapiens, UniProt Q9P0L2)", "T2 construct": "purchased Millipore", "test": "Purified kinase assay (Millipore)", "assay_type": "biochemical", "conditions": "300 nM ATP", "description": "as §3"}, "ITK": {"target": "T3, ITK (Homo sapiens, UniProt Q08881)", "T3 construct": "purchased Millipore", "T3 sequence (Q08881 whole entry)": "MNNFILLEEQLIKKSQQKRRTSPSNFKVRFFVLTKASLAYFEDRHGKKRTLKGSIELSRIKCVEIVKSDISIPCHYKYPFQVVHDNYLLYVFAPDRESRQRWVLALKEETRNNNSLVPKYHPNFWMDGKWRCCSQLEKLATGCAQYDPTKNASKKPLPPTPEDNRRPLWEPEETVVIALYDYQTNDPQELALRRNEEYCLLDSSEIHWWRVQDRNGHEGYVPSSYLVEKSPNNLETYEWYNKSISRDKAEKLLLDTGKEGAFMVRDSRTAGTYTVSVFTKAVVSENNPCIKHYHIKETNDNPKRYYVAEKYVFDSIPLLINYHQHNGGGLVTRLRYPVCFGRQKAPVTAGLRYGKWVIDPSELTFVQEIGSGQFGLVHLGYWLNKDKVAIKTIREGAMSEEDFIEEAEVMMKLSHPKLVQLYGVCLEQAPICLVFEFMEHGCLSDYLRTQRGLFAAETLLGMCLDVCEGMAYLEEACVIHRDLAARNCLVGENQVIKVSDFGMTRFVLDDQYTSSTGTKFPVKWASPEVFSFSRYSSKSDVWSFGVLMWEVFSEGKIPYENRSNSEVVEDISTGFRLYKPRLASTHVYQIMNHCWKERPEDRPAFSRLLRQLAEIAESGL", "test": "Purified kinase assay (Millipore)", "assay_type": "biochemical", "conditions": "300 nM ATP", "description": "as §3"}, "FMS": {"target": "T4, FMS (Homo sapiens, UniProt P07333)", "T4 construct": "purchased Millipore", "T4 sequence (P07333 20-972)": "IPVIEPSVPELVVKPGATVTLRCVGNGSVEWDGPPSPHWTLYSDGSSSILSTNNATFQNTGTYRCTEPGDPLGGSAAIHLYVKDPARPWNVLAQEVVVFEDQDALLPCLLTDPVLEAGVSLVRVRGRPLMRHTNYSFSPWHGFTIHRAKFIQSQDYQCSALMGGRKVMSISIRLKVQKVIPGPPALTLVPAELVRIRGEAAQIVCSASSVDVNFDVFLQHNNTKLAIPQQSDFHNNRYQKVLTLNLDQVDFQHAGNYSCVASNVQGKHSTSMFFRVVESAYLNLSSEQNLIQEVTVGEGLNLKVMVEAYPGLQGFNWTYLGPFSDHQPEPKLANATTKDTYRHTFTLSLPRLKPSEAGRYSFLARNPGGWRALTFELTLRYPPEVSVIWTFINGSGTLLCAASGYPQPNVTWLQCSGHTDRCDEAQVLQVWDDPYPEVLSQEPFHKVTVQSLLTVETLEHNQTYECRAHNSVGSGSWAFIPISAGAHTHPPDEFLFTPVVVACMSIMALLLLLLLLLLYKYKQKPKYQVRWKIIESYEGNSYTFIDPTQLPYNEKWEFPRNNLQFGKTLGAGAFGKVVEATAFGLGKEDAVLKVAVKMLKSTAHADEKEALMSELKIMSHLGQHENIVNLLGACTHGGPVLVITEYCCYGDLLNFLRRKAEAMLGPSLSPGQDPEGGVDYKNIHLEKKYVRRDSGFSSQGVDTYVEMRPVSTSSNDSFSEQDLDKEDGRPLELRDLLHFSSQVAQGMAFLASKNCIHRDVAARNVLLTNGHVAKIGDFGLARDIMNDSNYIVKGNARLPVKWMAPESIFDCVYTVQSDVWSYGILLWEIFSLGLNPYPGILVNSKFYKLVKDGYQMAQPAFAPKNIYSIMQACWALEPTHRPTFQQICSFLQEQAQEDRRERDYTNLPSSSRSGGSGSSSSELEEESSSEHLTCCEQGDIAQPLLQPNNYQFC", "test": "Purified kinase assay (Millipore)", "assay_type": "biochemical", "conditions": "300 nM ATP", "description": "as §3"}, "FLT3": {"target": "T5, FLT3 (Homo sapiens, UniProt P36888)", "T5 construct": "purchased Millipore", "T5 sequence (P36888 27-993)": "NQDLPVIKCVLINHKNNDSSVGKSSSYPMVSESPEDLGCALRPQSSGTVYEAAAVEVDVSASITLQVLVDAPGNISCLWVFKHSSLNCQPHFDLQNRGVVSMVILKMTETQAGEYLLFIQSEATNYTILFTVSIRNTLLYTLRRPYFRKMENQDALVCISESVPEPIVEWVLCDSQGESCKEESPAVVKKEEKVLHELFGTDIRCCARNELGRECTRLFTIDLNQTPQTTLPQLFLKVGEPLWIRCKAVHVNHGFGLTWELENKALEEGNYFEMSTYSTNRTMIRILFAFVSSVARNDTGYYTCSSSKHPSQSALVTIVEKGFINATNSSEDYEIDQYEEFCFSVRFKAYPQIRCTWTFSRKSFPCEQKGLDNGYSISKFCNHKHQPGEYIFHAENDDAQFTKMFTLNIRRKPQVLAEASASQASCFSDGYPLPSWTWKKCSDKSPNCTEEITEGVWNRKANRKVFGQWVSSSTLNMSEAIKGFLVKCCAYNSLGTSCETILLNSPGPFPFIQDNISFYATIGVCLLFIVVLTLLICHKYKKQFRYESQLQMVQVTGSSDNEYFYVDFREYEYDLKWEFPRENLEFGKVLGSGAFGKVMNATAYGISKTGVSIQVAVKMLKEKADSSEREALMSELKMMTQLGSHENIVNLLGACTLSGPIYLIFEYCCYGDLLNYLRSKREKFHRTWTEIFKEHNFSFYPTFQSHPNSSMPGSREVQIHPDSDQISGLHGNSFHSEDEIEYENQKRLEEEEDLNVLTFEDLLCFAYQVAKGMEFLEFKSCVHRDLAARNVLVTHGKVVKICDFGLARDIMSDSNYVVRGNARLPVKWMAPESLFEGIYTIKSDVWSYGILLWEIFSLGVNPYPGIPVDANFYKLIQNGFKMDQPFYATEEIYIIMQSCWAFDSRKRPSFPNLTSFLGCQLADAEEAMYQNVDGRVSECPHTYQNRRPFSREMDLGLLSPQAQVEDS", "test": "Purified kinase assay (Millipore)", "assay_type": "biochemical", "conditions": "300 nM ATP", "description": "as §3"}, "MST1": {"target": "T6, MST1 (Homo sapiens, UniProt Q13043)", "T6 construct": "purchased Millipore", "test": "Purified kinase assay (Millipore)", "assay_type": "biochemical", "conditions": "300 nM ATP", "description": "as §3"}, "ARK5": {"target": "T7, ARK5 (Homo sapiens, UniProt O60285)", "T7 construct": "purchased Millipore", "test": "Purified kinase assay (Millipore)", "assay_type": "biochemical", "conditions": "300 nM ATP", "description": "as §3"}, "MLK1": {"target": "T8, MLK1 (Homo sapiens, UniProt P80192)", "T8 construct": "purchased Millipore", "test": "Purified kinase assay (Millipore)", "assay_type": "biochemical", "conditions": "300 nM ATP", "description": "as §3"}, "CHK1": {"target": "T9, CHK1 (Homo sapiens, UniProt O14757)", "T9 construct": "purchased Millipore", "test": "Purified kinase assay (Millipore)", "assay_type": "biochemical", "conditions": "300 nM ATP", "description": "as §3"}, "FLT4": {"target": "T10, FLT4 (Homo sapiens, UniProt P35916)", "T10 construct": "purchased Millipore", "test": "Purified kinase assay (Millipore)", "assay_type": "biochemical", "conditions": "300 nM ATP", "description": "as §3"}, "GCK": {"target": "T11, GCK (Homo sapiens, UniProt Q12851)", "T11 construct": "purchased Millipore", "test": "Purified kinase assay (Millipore)", "assay_type": "biochemical", "conditions": "300 nM ATP", "description": "as §3"}, "RSK2": {"target": "T12, RSK2 (Homo sapiens, UniProt P51812)", "T12 construct": "purchased Millipore", "test": "Purified kinase assay (Millipore)", "assay_type": "biochemical", "conditions": "300 nM ATP", "description": "as §3"}, "PAR1B-a": {"target": "T13, PAR1B-a (Homo sapiens, UniProt Q7KZI7)", "T13 construct": "purchased Millipore", "test": "Purified kinase assay (Millipore)", "assay_type": "biochemical", "conditions": "300 nM ATP", "description": "as §3"}, "RSK4": {"target": "T14, RSK4 (Homo sapiens, UniProt Q9UK32)", "T14 construct": "purchased Millipore", "T14 sequence (Q9UK32 whole entry)": "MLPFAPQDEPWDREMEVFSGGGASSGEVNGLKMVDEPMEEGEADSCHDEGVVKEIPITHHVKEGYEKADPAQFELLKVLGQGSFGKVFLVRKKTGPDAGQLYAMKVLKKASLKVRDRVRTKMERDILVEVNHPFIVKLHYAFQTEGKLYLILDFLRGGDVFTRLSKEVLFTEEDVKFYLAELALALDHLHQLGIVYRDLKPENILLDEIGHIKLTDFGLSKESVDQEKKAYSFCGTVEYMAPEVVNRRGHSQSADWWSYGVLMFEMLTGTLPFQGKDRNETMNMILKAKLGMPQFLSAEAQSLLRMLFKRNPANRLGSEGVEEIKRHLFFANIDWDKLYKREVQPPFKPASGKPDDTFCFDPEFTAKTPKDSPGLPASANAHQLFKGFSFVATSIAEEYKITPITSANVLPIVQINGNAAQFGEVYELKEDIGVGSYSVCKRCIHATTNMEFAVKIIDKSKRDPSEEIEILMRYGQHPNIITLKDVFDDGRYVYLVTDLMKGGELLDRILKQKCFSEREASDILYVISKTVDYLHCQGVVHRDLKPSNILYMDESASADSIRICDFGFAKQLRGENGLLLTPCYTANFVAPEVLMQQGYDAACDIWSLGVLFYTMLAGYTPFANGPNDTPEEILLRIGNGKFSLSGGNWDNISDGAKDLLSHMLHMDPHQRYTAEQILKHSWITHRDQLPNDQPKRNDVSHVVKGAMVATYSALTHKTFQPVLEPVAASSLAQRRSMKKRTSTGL", "test": "Purified kinase assay (Millipore)", "assay_type": "biochemical", "conditions": "300 nM ATP", "description": "as §3"}, "MST2": {"target": "T15, MST2 (Homo sapiens, UniProt Q13188)", "T15 construct": "purchased Millipore", "T15 sequence (Q13188 whole entry)": "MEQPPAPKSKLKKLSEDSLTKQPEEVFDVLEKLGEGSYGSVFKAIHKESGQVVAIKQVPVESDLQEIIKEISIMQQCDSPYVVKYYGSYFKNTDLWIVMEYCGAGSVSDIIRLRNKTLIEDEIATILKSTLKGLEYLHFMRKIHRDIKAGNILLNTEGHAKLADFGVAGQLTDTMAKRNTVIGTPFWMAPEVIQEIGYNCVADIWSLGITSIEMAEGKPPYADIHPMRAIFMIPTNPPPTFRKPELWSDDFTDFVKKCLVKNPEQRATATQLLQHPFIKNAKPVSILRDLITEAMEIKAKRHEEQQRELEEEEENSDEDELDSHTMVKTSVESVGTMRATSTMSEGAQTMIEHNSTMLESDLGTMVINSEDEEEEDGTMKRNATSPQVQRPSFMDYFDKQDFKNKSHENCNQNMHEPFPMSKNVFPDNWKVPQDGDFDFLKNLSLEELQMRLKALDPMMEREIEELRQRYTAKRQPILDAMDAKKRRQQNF", "test": "Purified kinase assay (Millipore)", "assay_type": "biochemical", "conditions": "300 nM ATP", "description": "as §3"}, "RET": {"target": "T16, RET (Homo sapiens, UniProt P07949)", "T16 construct": "purchased Millipore", "test": "Purified kinase assay (Millipore)", "assay_type": "biochemical", "conditions": "300 nM ATP", "description": "as §3"}}}
{"compound": "CCS(=O)(=O)N1CCN(c2ccc(Nc3ncc(C(N)=O)c(NC4CC4)n3)cc2)CC1", "note": "[cerdulatinib, 4-(cyclopropylamino)-2-(4-(4-(ethylsulfonyl)piperazin-1-yl)phenylamino)pyrimidine-5-carboxamide]", "values": [{"measurement": "inhibition of SYK and JAK at SS Cmin in peripheral blood assays", "setting": "SYK and JAK signaling; 45 mg BID dose", "result": "complete inhibition"}, {"measurement": "inhibition at 40 mg", "setting": "SYK and JAK signaling; Homo sapiens, Lymphocyte, 672 h, day 28 of cycle 1, plasma about 0.6 to 1 μM (Cmin of 40 mg dose), read-out: saturating inhibition of SYK and JAK in circulating lymphocytes", "result": "80 to 90", "unit": "%"}, {"measurement": "inhibition of SYK and JAK in peripheral whole blood assays", "setting": "SYK and JAK signaling; exposures of the 30 mg once daily dose", "result": "approximately 50%"}, {"measurement": "maximal inhibition of SYK/JAK signaling", "setting": "SYK and JAK signaling; in vivo", "result": "greater than 80%"}, {"measurement": "inhibition of SYK and JAK safely achieved", "setting": "SYK and JAK signaling; oral dosing in patients, multiple cycles of therapy", "result": "> 90", "unit": "%"}, {"measurement": "JAK/STAT signaling inhibition", "setting": "IL2, IL4, IL6 signaling; Cmin/Cmax", "result": "60-80%"}, {"measurement": "% Inhibition IL2, IL4, IL6 signaling", "setting": "IL2, IL4, IL6 signaling; Patient 1, 65 mg PO QD", "result": "60-100%"}, {"measurement": "IC50", "setting": "PKC", "result": "> 4", "unit": "µM"}, {"measurement": "% Inhibition of BCR (Cmin-Cmax)", "setting": "BCR signaling; 40-100 mg QD doses", "result": "92-100%"}, {"measurement": "inhibition of BCR signaling in whole blood", "setting": "BCR signaling; FL patient, single 65 mg dose", "result": "complete inhibition"}, {"measurement": "inhibition at 15 mg", "setting": "BCR signaling; Homo sapiens, 15 mg/day, read-out: % Inh. BCR (Cmin-Cmax) Extrapolated from PK/PD fit of all data", "result": "22 to 55", "unit": "%"}, {"measurement": "inhibition at 30 mg", "setting": "BCR signaling; Homo sapiens, 30 mg/day, read-out: % Inh. BCR (Cmin-Cmax) Extrapolated from PK/PD fit of all data", "result": "31 to 83", "unit": "%"}, {"measurement": "inhibition at 40 mg", "setting": "BCR signaling; Homo sapiens, 40 mg/day, read-out: % Inh. BCR (Cmin-Cmax) Extrapolated from PK/PD fit of all data", "result": "92 to 100", "unit": "%"}, {"measurement": "inhibition at 100 mg", "setting": "BCR signaling; Homo sapiens, 100 mg/day (one patient), read-out: % Inh. BCR (Cmin-Cmax) Extrapolated from PK/PD fit of all data", "result": "53 to 98", "unit": "%"}, {"measurement": "% Inhibition BCR signaling", "setting": "BCR signaling; Patient 1, 65 mg PO QD", "result": 100, "unit": "%"}, {"measurement": "% Inhibition BCR signaling, pERK Y204", "setting": "BCR signaling; Patient 2", "result": 0, "unit": "%"}, {"measurement": "% Inhibition BCR signaling, pSYK Y525/525", "setting": "BCR signaling; Patient 2", "result": 90, "unit": "%"}, {"measurement": "BCR signaling pathway inhibition", "setting": "BCR signaling; steady state Cmin/Cmax", "result": "90-100%"}, {"measurement": "IC50", "setting": "TSSK", "result": 0.014, "unit": "µM"}, {"measurement": "activity against DLBCL cell lines", "setting": "15 DLBCL cell lines; 2 μM", "result": "broadly active"}, {"measurement": "induction of apoptosis in cell lines", "setting": "15 DLBCL cell lines; 2 μM", "result": "induced apoptosis in the majority of cell lines"}, {"measurement": "additional cell lines that underwent cell cycle arrest", "setting": "15 DLBCL cell lines; panel of 15 cell lines", "result": 2}, {"measurement": "number of cell lines that underwent apoptosis", "setting": "15 DLBCL cell lines; panel of 15 cell lines, ABC and GCB subtypes", "result": 9}, {"measurement": "response of DB, TOLEDO, and RCK8 cell lines", "setting": "15 DLBCL cell lines; three of the 15 cell lines", "result": "resistant"}, {"measurement": "concentration required to induce apoptosis and/or cell cycle arrest", "setting": "15 DLBCL cell lines; variable, generally observed", "result": "~2", "unit": "µM"}, {"measurement": "IC50", "setting": "JAK1/3", "result": 0.2, "unit": "µM"}, {"measurement": "IC50", "setting": "SYK", "result": 0.5, "unit": "µM"}, {"measurement": "IC50", "setting": "Zap70", "result": "> 4", "unit": "µM"}, {"measurement": "IC50", "setting": "TYK2", "result": 0.0005, "unit": "µM"}, {"measurement": "IC50", "setting": "MARK1", "result": 0.01, "unit": "µM"}, {"measurement": "IC50", "setting": "ITK", "result": 0.194, "unit": "µM"}, {"measurement": "IC50", "setting": "FMS", "result": 0.005, "unit": "µM"}, {"measurement": "IC50", "setting": "FLT3", "result": 0.09, "unit": "µM"}, {"measurement": "IC50", "setting": "MST1", "result": 0.004, "unit": "µM"}, {"measurement": "IC50", "setting": "ARK5", "result": 0.004, "unit": "µM"}, {"measurement": "IC50", "setting": "MLK1", "result": 0.005, "unit": "µM"}, {"measurement": "IC50", "setting": "CHK1", "result": 0.042, "unit": "µM"}, {"measurement": "IC50", "setting": "FLT4", "result": 0.051, "unit": "µM"}, {"measurement": "IC50", "setting": "GCK", "result": 0.018, "unit": "µM"}, {"measurement": "IC50", "setting": "RSK2", "result": 0.02, "unit": "µM"}, {"measurement": "IC50", "setting": "PAR1B-a", "result": 0.013, "unit": "µM"}, {"measurement": "IC50", "setting": "RSK4", "result": 0.028, "unit": "µM"}, {"measurement": "IC50", "setting": "MST2", "result": 0.015, "unit": "µM"}, {"measurement": "IC50", "setting": "RET", "result": 0.105, "unit": "µM"}]}
